Data published in patent US8846096B2, “Nanoparticles and methods of use” (Creighton University, priority 2008, dated 2014).
Blank lines part the entries; values can stand above or below the compound they belong to.

Experiments:
[1] = Drug levels in organs and serum of mice after a single intraperitoneal dose; settings: male, BALB/c, mouse, liver, ip, 500 μg
Method: (§1) The particles were weighed, reconstituted with PBS and 500 μg was injected intraperitoneally (IP) into male BALB/c mice. At specific times, (free: 0.08, 0.167, 0.25, 0.33, 1, 2 and 3 days; antiretroviral nanoparticles: 0.167, 0.33, 1, 2, 4, 7, 14, 21, 28, and 35 days) mice (n=3/time point) were euthanized and selected organs and serum were harvested for antiretroviral drug levels. Results are presented as mean±SEM.
The nanoparticle powder was weighed and 500 μg was dissolved in phosphate-buffered saline (PBS) and injected intraperitoneally into each BALB/c male mice (25-28 g). […] At specified times points, mice (n=3-4) were euthanized using a CO2 chamber and organs (spleen, liver, kidney, brain, testes) and blood (100-150 μL) were removed from each of the mice. Blood was allowed to clot, centrifuged (1000×G) and serum was harvested. The organs were harvested and immediately placed on ice. At weekly intervals, an aliquot of the organ tissue was weighed and 500 μL of 100% methanol was added to tissue and serum samples. The tissue was homogenized using a pellet homogenizer, equilibrated at 4° C. for 30 minutes, and then centrifuged (11,400 RPM×15 minutes at 4° C.). An aliquot of the supernatant (20 μL/injection) was added to autosampler vials with glass inserts. […] Duplicate samples from tissues and serum were assayed and standards were assayed in triplicate. […]

[2] = Nanoparticle characterization (size, zeta potential, drug loading, entrapment efficiency); assay type: physicochemical; settings: per drug, HPLC
Method: Briefly, in a typical procedure, a solution of ethylene oxide/propylene oxide block copolymer (Poloxamer-127; 2% [w/v] in double distilled water (ddH2O 10 mL); BASF, Mt. Olive, N.J.) was homogenized with ART drug powder (1 mg of each) in poly-lactic-co-glycolic acid) (PLGA) polymer (molecular weight 110,000-139,000 Daltons (100 mg) in 10 mL methylene chloride) using a probe sonicator (21W for 6 min) (Sonicator XL, Misonix, Farmingdale, N.Y.). The water-in-oil emulsion thus formed was further emulsified into 30 mL of 0.25% (w/v) aqueous solution of polyvinyl alcohol (PVA) as an emulsifier by using sonication as described above for 5 minutes to fowl multiple water-in-oil-in-water emulsion. […] Additionally, 6-hydroxycoumarin (a fluorescent dye; 1% w/v) was added to the polymer solution and one milligram of each ART were fabricated to make fluorescent nanoparticles for flow cytometry. In all formulation procedures, the emulsion was stirred for approximately 18 hours at room temperature to evaporate the organic solvent, methylene chloride, followed by ultracentrifugation (15,000 G for 45 minutes at 4° C., Optima LE-80K, Beckman, Palo Alto, Calif.), rinsed twice with ddH2O to remove PVA, and unentrapped drugs, and then lyophilized (Labconco, Freezone 4.5 at −52° C. and 5.62 torr) for 24 hours to obtain a dry powder.
Nanoparticle characterization: Nanoparticles were evaluated for size by […] as well as scanning electron microscopy (SEM) and surface charge by using a zeta potential analyzer (ZetaPlus, Brookhaven Instruments, Holtsville, N.Y.). For SEM, a sample of nanoparticles was suspended in water (0.2 mg/ml) and an aliquot of suspended particles were placed onto a tip and sputter coated with 2% w/v uranyl acetate, dried, and then visualized by using a JEOL-40A (JEOL Ltd, Sheboygan, Wis.) scanning electron microscope. Additionally, one milligram of formed particles was dissolved in one milliliter methylene chloride in glass tubes and evaporated overnight in quadruplicate. High pressure liquid chromatography (HPLC) mobile phase (200 μL) reconstituted the tubes. The tubes were centrifuged (11,000 rpm, 10 minutes, 4° C.) and aliquots were injected into the HPLC equipment to determine ART drug loading and entrapment efficiency.
Standards were analyzed in triplicate and averaged.

PBMCs = experiment: ART release from nanoparticles / free drug: intracellular drug levels in PBMCs by HPLC
Method: High pressure liquid chromatography (HPLC): HPLC was performed using a previously reported method (Weller et al., J. Chromatogr. B Analyt. Technol. Biomed. Life Sci., 2007, 848(2):369-73). Briefly, the equipment included a pump (LC-10ATvp), system controller (SIL-10ADvp); degasser unit (DGU-14A), refrigerated auto-sampler (SIL-10ADvp); and a UV-Vis detector (SPD-10ADvp) and a column heater (set at 35° C.) (all from Shimadzu Corporation, Columbia, Md.). Samples were run through a C18 pre-column and a Jupiter C18 reverse-phase [150×3.9 mm (I.D.)] with […] particle size packing (Phenomenex, Torrance, Calif.). The mobile phase was 25 mM KHPO4 (pH 4.9) and acetonitrile (40:60). The mobile phase was filtered and degassed prior to use. Flow rate was set at 0.9 mL/min and the detector was set at 212 nm. […] Peak area from the samples and standards were integrated using EZ-Start chromatography software (Shimadzu) on a Dell computer. Injection volume was 20 μL and all samples were analyzed in duplicate and averaged. Standards were analyzed in triplicate and averaged.
Human monocyte isolation and cultivation: Human PBMCs were obtained from whole blood collection of HIV-1, -2 and hepatitis B seronegative donor and purified using CPT Vacutainer tubes (BD and Co., Sparks, Md.) according to the manufacturer instructions. […] (1×10^6 cells/mL) were cultured in DMEM supplemented with 10% heat-inactivated pooled human serum, 1% glutamine, 1% penicillin-streptomycin, and 10 µg/mL ciprofloxacin (Sigma Chemical Co) then filter sterilized. The PBMCs were used within 2 hours after blood collection. Media was one-half exchanged with fresh media every 2-3 days. These cells were used for ART drug release experiments from nanoparticles as determined by HPLC. Human PBMCs at 5×10^6 were cultured in DMEM supplemented with 10% heat-inactivated pooled human serum, 1% glutamine, 1% penicillin-streptomycin, and 10 µg/mL ciprofloxacin (Sigma Chemical Co), and 1000 U/mL highly purified recombinant human macrophage colony stimulating factor (MCSF; R&D Systems, Inc; Minneapolis, Minn.) for seven days. Media was one-half exchanged very 2-3 days. Monocyte-derived macrophages (MDM) were used for TEM and fluorescent imaging.
ART Release from Nanoparticles: Antiretroviral nanoparticles (100 μg) were added to PBMC cell cultures. Flasks containing PBMCs and ART nanoparticles were placed in a 37° C., 5% CO2 incubator. At the appointed time, media in the flask was placed in a sterile 15 mL conical tube and centrifuged (400×G, 24° C. for 10 minutes). Cells (250 μL) were removed from the tube and put into a microfuge tube for HPLC analysis. […] Cell samples were placed in microfuge tubes, 250 μL of 100% methanol was added to lyse the cells then the cells were frozen (−20° C.) until assayed for ART drugs using HPLC. When HPLC was performed, microfuge tubes were thawed, centrifuged at 15,000 rpm at 4 C for 10 minutes and an aliquot of supernatant was placed into autosampler vials with glass insert. Free drugs (25 μg/mL of each ART drug) was dissolved in HPLC-grade ethanol, incubated with the PBMCs and cells were removed at 2, 4, 8, 24, and 48 hours, lysed with methanol, centrifuged, and assayed by HPLC as controls of these experiments.

[3] = Serum pharmacokinetics after a single intraperitoneal dose in mice; settings: for MRT: MRT (mean residence time within the serum)
Method: as §1
The nanoparticle powder was weighed and 500 μg was dissolved in phosphate-buffered saline (PBS) and injected intraperitoneally into each BALB/c male mice (25-28 g). […] At specified times points, mice (n=3-4) were euthanized using a CO2 chamber and organs (spleen, liver, kidney, brain, testes) and blood (100-150 μL) were removed from each of the mice. Blood was allowed to clot, centrifuged (1000×G) and serum was harvested. The organs were harvested and immediately placed on ice. At weekly intervals, an aliquot of the organ tissue was weighed and 500 μL of 100% methanol was added to tissue and serum samples. The tissue was homogenized using a pellet homogenizer, equilibrated at 4° C. for 30 minutes, and then centrifuged (11,400 RPM×15 minutes at 4° C.). An aliquot of the supernatant (20 μL/injection) was added to autosampler vials with glass inserts. […] Duplicate samples from tissues and serum were assayed and standards were assayed in triplicate. The organ/serum samples were compared to the standard curve (45-1000 ng/ml) that was performed on that day using peak area and EZ-Chrom software (Shimadzu, Corp.).
Data is presented as mean±SEM where appropriate. Serum concentration-time curves were used to determine pharmacokinetic parameters. Elimination rate constant was determined using nonlinear regression of the terminal phase of the serum concentration-time curve. Apparent volume of distribution, total body clearance, mean residence time and area under the serum concentration-time curve to the last concentration obtained (AUC0-last) were determined by non-compartmental modeling.

[4] = PLGA NPs 500 μg IP, mice, listed as E
[5] = male, BALB/c, mouse, in vivo, ip, 500 ug
[6] = male, BALB/c, mouse, in vivo, ip, 500 ug, Elimination half-life, drug given as PLGA nanoparticles, averaging
[7] = male, BALB/c, mouse, in vivo, ip, 500 ug, Free ART
[8] = male, BALB/c, mouse, in vivo, ip, 500 ug, NP ART
[9] = male, BALB/c, mouse, in vivo, ip, 500 ug, T1/2 (elimination half-life), Free ART
[10] = male, BALB/c, mouse, in vivo, ip, 500 ug, T1/2 (elimination half-life), NP ART

concentration at 28 day [1]: 1020 ± 440 ng/g | Antiretroviral drug loading of the nanoparticles [2]: 10.8% | Entrapment efficiency [2]: 86% | Intracellular peak level, drug given as nanoparticles (PBMCs; PLGA NPs (100 μg) incubated with PBMCs): 10.6+2.7 μg | Time of intracellular peak concentration, drug given as nanoparticles (PBMCs; PLGA NPs incubated with PBMCs): 24 h | Time of intracellular peak level, drug given as nanoparticles (PBMCs; PLGA NPs incubated with PBMCs (summary of Example 1)): 4 days | Intracellular peak concentration, free drug (PBMCs; free drug 25 μg/mL in ethanol, PBMCs, at 8 hours): 3.1+0.02 μg | Time of intracellular peak concentration, free drug (PBMCs; free drug, PBMCs): 8 h | Time to elimination of free drug from PBMCs (PBMCs; human, 25 μg/mL): ≤ 48 h | Peak serum level, drug given as PLGA nanoparticles ([3]; PLGA NPs 500 μg IP single dose, mice): 853.2 ± 64.1 ng/mL | AUC (area under the serum concentration-time curve), NP ART ([3]; PLGA NPs 500 μg IP, mice): E: 5716.9 ± 3177.7 ng-day/ml | ClT (total body clearance), NPs ([3]; PLGA NPs 500 μg IP, mice): 2.85 ± 2.12 mL/min/kg | Time of peak serum level, drug given as PLGA nanoparticles ([3]; PLGA NPs 500 μg IP, mice): 0.25 h | Vd (volume of distribution), NP ART ([3]; PLGA NPs 500 μg IP, mice): 11.38 ± 10.72 L/kg | MRT (mean residence time within the serum), NP ART [3, 4]: E: 10.3 ± 4.24 days | Vd (volume of distribution), NP ART [3, 4]: E: 11.4 ± 10.7 L/kg | Peak serum level, free drug ([3]; free drugs 500 μg IP single dose, mice, 4 hours post-injection): 3.5 ± 1.9 µg/L | AUC (area under the serum concentration-time curve, AUC0-last), Free ART ([3]; free drugs 500 μg IP, mice): 646 ± 640 ng·days/mL | Time of peak serum level, free drug ([3]; free drugs 500 μg IP, mice): 4 h | Vd (volume of distribution), Free ART ([3]; free drugs 500 μg IP, mice): 39.3 ± 26.6 L/kg | T1/2 (elimination half-life), Free ART ([3]; free drugs 500 μg IP, mice, serum, listed as E): E: 11.76 ± 2.8 hrs | AUC (area under the serum concentration-time curve, AUC0-last), Free ART [3, 5]: E: 645. 9 ± 640.2 ng-day/ml | MRT ([3]; male, BALB/c, mouse, serum, ip, 500 ug, Free ART, free drugs 500 μg IP, mice): 13.7 h | MRT ([3]; male, BALB/c, mouse, serum, ip, 500 ug, NP ART, PLGA NPs 500 μg IP, mice): 248 h | half-life ([3]; male, BALB/c, mouse, serum, ip, 500 ug, T1/2 (elimination half-life), Free ART, free drugs 500 μg IP, mice): 11.8 ± 2.8 h | half-life ([3]; male, BALB/c, mouse, serum, ip, 500 ug, T1/2 (elimination half-life), NP ART, PLGA NPs 500 μg IP, mice): 35.5 h
Structure (SMILES): O=C1Nc2ccc(Cl)cc2[C@@](C#CC2CC2)(C(F)(F)F)O1 [EFV, efavirenz]

Antiretroviral drug loading of the nanoparticles [2]: 4.9% | Time of intracellular peak concentration, free drug (PBMCs; human, 25 μg/mL): 8 h | Time to elimination of free drug from PBMCs (PBMCs; human, 25 μg/mL): ≤ 48 h | Intracellular peak level, drug given as nanoparticles (PBMCs; human, 100 μg): 2.5+1.1 μg | Time of intracellular peak concentration, drug given as nanoparticles (PBMCs; human, 100 μg): 96 h | Time of intracellular peak level, drug given as nanoparticles (PBMCs; human, 100 μg): 4 days | Vd (volume of distribution), Free ART [3, 5]: 9.7 ± 4.4 L/kg | Vd (volume of distribution), NP ART [3, 5]: 549.9 ± 360 L/kg | half-life [3, 6]: > 1680 h | MRT [3, 7]: 4.8 h | MRT [3, 8]: 775 h | half-life [3, 9]: 9.6 ± 2.8 h | half-life [3, 10]: 5500 h | AUC (area under the serum concentration-time curve), NP ART ([3]; mouse, in vivo, ip, 500 ug): R: 7020.5 ± 11428.7 ng-day/ml
Structure (SMILES): CC(C)c1nc(CN(C)C(=O)N[C@H](C(=O)N[C@@H](Cc2ccccc2)C[C@H](O)[C@H](Cc2ccccc2)NC(=O)OCc2cncs2)C(C)C)cs1 [RTV, ritonavir]

Antiretroviral drug loading of the nanoparticles [2]: 5.2% | Time of intracellular peak concentration, free drug (PBMCs; human, 25 μg/mL): 8 h | Time to elimination of free drug from PBMCs (PBMCs; human, 25 μg/mL): ≤ 48 h | Intracellular peak level, drug given as nanoparticles (PBMCs; human, 100 μg): 4.1+2.0 μg | Time of intracellular peak concentration, drug given as nanoparticles (PBMCs; human, 100 μg): 96 h | Time of intracellular peak level, drug given as nanoparticles (PBMCs; human, 100 μg): 4 days | Vd (volume of distribution), Free ART [3, 5]: 41.6 ± 31.7 L/kg | Vd (volume of distribution), NP ART [3, 5]: 118.6 ± 165.9 L/kg | half-life [3, 6]: > 1680 h | MRT [3, 7]: 14.4 h | MRT [3, 8]: 5490 h | half-life [3, 9]: 15.1 ± 6.4 h | half-life [3, 10]: 645 h | AUC (area under the serum concentration-time curve), NP ART ([3]; mouse, in vivo, ip, 500 ug): L: 3329.8 ± 1785.3 ng-day/ml
Structure (SMILES): Cc1cccc(C)c1OCC(=O)N[C@@H](Cc1ccccc1)[C@@H](O)C[C@H](Cc1ccccc1)NC(=O)[C@H](C(C)C)N1CCCNC1=O [LPV, lopinavir]
